From patent US12037324B2, “Biarylmethyl heterocycles” (Université de Montréal, priority 2016, dated 2024)
pEC50: −log10 of the molar value. Where two headings read alike, the source gives them in different places.

Experiments:
AGTR1 = molecular target: T1, AGTR1 (Homo sapiens, UniProt P30556); test: DiscoveRx β-arrestin2 recruitment assay (enzyme complementation, Pathunter CHO-K1 AGTR1 β-arrestin cell line); type: cell-based
T1 construct: host or cells: Pathunter CHO-K1 AGTR1 β-arrestin cell line (CHO-K1)
T1 sequence (P30556 1-359): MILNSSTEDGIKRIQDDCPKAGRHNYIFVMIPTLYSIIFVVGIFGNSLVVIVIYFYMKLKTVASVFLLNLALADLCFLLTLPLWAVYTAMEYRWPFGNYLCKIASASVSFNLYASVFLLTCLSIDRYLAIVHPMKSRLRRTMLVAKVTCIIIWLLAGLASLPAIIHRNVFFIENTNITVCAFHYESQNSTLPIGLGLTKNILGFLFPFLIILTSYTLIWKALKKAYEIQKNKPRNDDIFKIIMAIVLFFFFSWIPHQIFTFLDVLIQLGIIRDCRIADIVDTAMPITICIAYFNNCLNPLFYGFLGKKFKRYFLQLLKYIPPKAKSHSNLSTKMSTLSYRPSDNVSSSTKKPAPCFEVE
Procedure, shortened: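 Chemiluminescent enzyme-complementation read-out of β-arrestin2 recruitment to AGTR1 in engineered CHO-K1 cells after 90 min compound exposure at 37° C. Values are 4-parameter logistic EC50s in agonist mode, IC50s in antagonist mode, with efficacy relative to the maximal All response.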

hAT1R [1] = molecular target: T2, hAT1R (Homo sapiens, UniProt P30556); test: cell-based; settings: agonist mode; for pEC50: read-out: BRET P63 EC50
T2 sequence (P30556 1-359): T1 sequence (P30556 1-359)

hAT1R [2] = molecular target: T2, hAT1R; test: BRET Gq biosensor assay, agonist response, HEK293 cells; type: cell-based; settings: section of the 42nd table directly before the BRET P63 section
Procedure, shortened: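 Agonist EC50 derived from a 4-parameter fit of BRET2 ratio (GFP 515 nm/Rluc 410 nm), scaled between unstimulated control and maximal AngII response. Readings taken 5 min after compound addition at room temperature, with 2 μM coelenterazine, in HEK293 cells expressing hAT1R, Gαq-Rluc, Gβ1 and GFP-Gγ1 (transfected two days earlier).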

hAT1R [3] = molecular target: T2, hAT1R; test: cell-based; settings: section of the 42nd table ending at r951, example numbering restarts after the DiscoveRx section; read-out: β-arrestin2 EC50
hAT1R [4] = molecular target: T2, hAT1R; test: BRET β-arrestin2 biosensor assay, higher receptor expression (hAT1R 5 ng/well), HEK293 cells; type: cell-based; settings: for pEC50: High AT1R Expression
[5] = DiscoveRx β-arrestin2 recruitment
[6] = DiscoveRx β-arrestin2 recruitment, maximal response

| SMILES | pEC50 (AGTR1; [5]) | DiscoveRx β-arrestin2 Ymax (%) (AGTR1; [6]) | pEC50 (hAT1R [1]) | pEC50 (hAT1R [2]) | pEC50 (hAT1R [3]) | BRET P63 Ymax (hAT1R [1]) [%] | DiscoveRx β-arrestin2 Ymax (%) (AGTR1; [5]) | BRET β-Arrestin2 High AT1R Expression Ymax (%) (hAT1R [4]) | pEC50 (hAT1R [4]) | pEC50 (AGTR1) |
| --- | --- | --- | --- | --- | --- | --- | --- | --- | --- | --- |
| CCOc1nc2cccc(C(=O)O)c2n1Cc1ccc(-c2cc(-c3cnc4ccccc4c3)ccc2-c2nn[nH]n2)cc1 [Example 326, 2-ethoxy-1-((5′-(quinolin-3-yl)-2′-(2H-tetrazol-5-yl)-[1,1′-biphenyl]-4-yl)methyl)-1H-benzo[d]imidazole-7-carboxylic acid] | 8.02 | 45.9 | < 4.00 | 7.79 | 7.61 |  |  |  |  |  |
| CCOc1nc2cccc(C(=O)O)c2n1Cc1ccc(-c2cc(-c3cnn(C(F)F)c3)ccc2-c2nn[nH]n2)cc1 [Example 327, 1-((5′-(1-(difluoromethyl)-1H-pyrazol-4-yl)-2′-(2H-tetrazol-5-yl)-[1,1′-biphenyl]-4-yl)methyl)-2-ethoxy-1H-benzo[d]imidazole-7-carboxylic acid] | 8.03 | 64.2 | 7.57 | 7.66 | 7.48 | 10.8 |  |  |  |  |
| CCOc1nc2cccc(C(=O)O)c2n1Cc1ccc(-c2cc(Oc3ccccc3)ccc2-c2nn[nH]n2)cc1 [Example 330, 2-Ethoxy-1-((5′-phenoxy-2′-(2H-tetrazol-5-yl)-[1,1′-biphenyl]-4-yl)methyl)-1H-benzo[d]imidazole-7-carboxylic acid] | 7.88 | 57.8 | < 5.00 | 7.40 | 7.78 |  |  |  |  |  |
| CCOc1nc2cccc(C(=O)O)c2n1Cc1ccc(-c2cc(Oc3cccc(F)c3)ccc2-c2nn[nH]n2)cc1 [Example 331] | 7.88 | 44.5 | < 5.00 | 7.58 | 8.08 |  |  |  |  |  |
| CCOc1nc2cccc(C(=O)O)c2n1Cc1ccc(-c2cc(Oc3cccc(OC)c3)ccc2-c2nn[nH]n2)cc1 [Example 332] | 7.62 | 30.6 | < 5.00 | 6.98 | 7.92 |  |  |  |  |  |
| CCOc1nc2cccc(C(=O)O)c2n1Cc1ccc(-c2cc(Oc3cccnc3)ccc2-c2nn[nH]n2)cc1 [Example 333] | 8.00 | 67.8 | < 5.00 | 7.75 | 7.95 |  |  |  |  |  |
| CCOc1nc2cccc(C(=O)O)c2n1Cc1ccc(-c2cc(Oc3ccccc3F)ccc2-c2nn[nH]n2)cc1 [Example 334] | 7.97 | 73.5 | 7.80 | 7.38 | 8.23 | 13.9 |  |  |  |  |
| CCOc1nc2cccc(C(=O)O)c2n1Cc1ccc(-c2cc(Oc3cccc(OC(F)(F)F)c3)ccc2-c2nn[nH]n2)cc1 [Example 335] | 7.44 | 22.7 | < 5.00 | 6.14 | 8.22 |  |  |  |  |  |
| CCOc1nc2cccc(C(=O)O)c2n1Cc1ccc(-c2cc(Oc3ccc(F)cc3)ccc2-c2nn[nH]n2)cc1 [Example 336] | 7.79 | 61.4 | < 5.00 | 7.33 | 7.91 |  |  |  |  |  |
| CCCCC(=O)N(Cc1ccc(-c2cc(N3CCC(C)CC3)ccc2-c2nn[nH]n2)cc1)[C@H](C(=O)O)C(C)C [Example 447] | 6.53 |  | < 4.00 | 5.86 |  |  | 35.0 | 63.1 | 6.47 |  |
| CCCCC(=O)N(Cc1ccc(-c2cc(N3CCCC(C)C3)ccc2-c2nn[nH]n2)cc1)[C@H](C(=O)O)C(C)C (stereo partly shown) [Example 448] | 6.79 |  | < 4.00 | 6.07 |  |  | 20.8 | 58.5 | 6.22 |  |
| CCCCC(=O)N(Cc1ccc(-c2cc(Nc3ccccc3)ccc2-c2nn[nH]n2)cc1)[C@H](C(=O)O)C(C)C [Example 449] | 6.58 |  | < 4.00 | < 4.00 |  |  | 17.8 | 30.1 | 6.46 |  |
| CCCCC1=NC2(CCCC2)C(=O)N1Cc1ccc(-c2cc(Oc3cc(C)ccn3)ccc2-c2nn[nH]n2)cc1 [Example 455] | 7.33 |  |  | 7.03 | 6.74 |  | 14.4 |  |  | < 4.00 |
